Assay results: US20240124528A1, “ANTAGONIST OF INTERLEUKIN-17B RECEPTOR (IL-17RB) AND USE THEREOF” (Academia Sinica, priority 2020, published 2024)

Assays:
[1] = tested on: peripheral blood mononuclear cells (PBMCs); assay: IL-17E-induced IL-4 and IL-13 mRNA expression in PBMCs (RT-qPCR); type: cell-based; settings: peptide pretreatment
Experimental: (§1) (FIG. 24A) Flow chart describing the experimental design for testing the effects of anti-IL-17RB antibody and loop peptide on IL-17E-induced expression of IL-4 and IL-13 in peripheral blood mononuclear cells (PBMCs). PBMCs were purified by Ficoll-paque and used for the following experiments. (FIG. 24B to FIG. 24E) IL-4 and IL-13 expression induced by IL-17B or IL-17E in the PBMCs was determined by RT-qPCR after mIgG or anti-IL-17RB antibody pretreatment (FIG. 24B and FIG. 24C) and control or loop peptide pretreatment (FIG. 24D and FIG. 24E), respectively. (FIG. 24F and FIG. 24G) The DCs derived from mouse bone marrow were treated with the control or loop peptides, separately. (FIG. 24F) Flow cytometry analysis using anti-CD80, CD86 and MHC-II antibodies was performed to determine the activity of the DCs after incubation with the control or loop peptides for 48 hrs. (FIG. 24G) The activities of DCs were quantified by gating the area of the CD80, CD86 and MHC-II-positive cells (n=3). Data are mean±s.d.

[2] = tested on: pancreatic cancer cells expressing IL-17RB; assay: Invasion assay after peptide treatment; type: cell-based, human; settings: CFPAC1 and PDX-derived cells treated with peptide
Text: FIGS. 7A to 7J include charts showing that disruption of the interaction between IL-17RB and MLK4 by the loop peptide blocks oncogenic progression. (FIG. 7A) Peptides TAT48-57 (Control) (SEQ ID NO: 21) and TAT-IL-17RB403-416 (Loop) (SEQ ID NO: 30) used for the following experiments. (FIG. 7B) Immunoblotting analysis of IL-17RB binding to MLK4 with Loop peptide treatment. 293T cells expressing Flag-MLK4 and HA-IL-17RB were pretreated with the control and loop peptides with different dose (0, 0.1, 1, 10, 50, 100 ng/ml) for 30 mins, and then added rIL-17B for 30 mins. […] CCL20 and TFF/mRNA expression of these cells were measured by RT-qPCR (n=3) (FIG. 7D), the same cells were for invasion assay (n=4) (FIG. 7E) and SACF assay (n=4) (FIG. 7F). […] (FIG. 7I) The experimental EKP mice (n=7 for each group) were euthanized at Day 56, and the metastatic tumor nodules in the lungs were counted. […]
FIGS. 19A to 19D include charts showing that treatment with the loop peptide suppresses aggressive behavior of patient-derived pancreatic tumor cells. […] (FIG. 19C and FIG. 19D) These cells were measured by RT-qPCR for the cytokine gene mRNA expression (n=3), or for Invasion assay (n=4) (FIG. 19C) and SACF assay (n=4) (FIG. 19D). […]

[3] = tested on: DCs derived from mouse bone marrow; type: cell-based
Experimental: as §1

## RKKRRQRRRVCDGTCGKSEGSPS (IL-17RB inhibitory peptide, fusion protein) [loop peptide]
[1]
  IL-17E-induced IL-4 and IL-13 mRNA expression: does not suppress
[2]
  invasion ability: diminished
[3]
  bone marrow-derived dendritic cell activation (CD80, CD86, MHC-II): does not suppress IL-17E-induced IL-4 and IL-13 mRNA expression in PBMCs or affect
